Consider eight compounds from patent US12600740B2, “Fluorinated N-acetyl glucosamine analogs and xylose derivatives” (UTI Limited Partnership, priority 2018, dated 2026).

The subject of series [1] is CSPG production by astrocytes. The series is described as follows: Western blot of astrocyte conditioned medium, MAB2030 (chondroitin sulfate GAG stubs). The class given is cell-based, mouse. Particulars: for Reduce CSPG production: astrocytes, significance class. In a few lines: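 Astrocytes (1×10^6 cells/well) were treated with 50 μM compound in AIM-V for 48 h, and pooled conditioned medium was concentrated for Western blot. Samples for MAB2030 were digested overnight at 37° C with 0.2 U/ml chondroitinase ABC; 2H6 blots were undigested. ECL band density was normalized to untreated astrocytes on the same gel.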
(In general: A western blot detects proteins with antibodies after separation by electrophoresis.)

The next series deals with mouse astrocytes. The series can be described thus: Propidium iodide/calcein AM toxicity on astrocytes. The class given is cell-based. Particulars: 100 μM, 48 hours. The method, then: Toxicity on astrocytes was assayed with propidium iodide/calcein AM […]. Live cells convert calcein AM into a green fluorescent product, whereas dying/dead cells are stained with propidium iodide.
96-well plates were imaged with ImageXpress® Micro Cellular Imaging and Analysis System (Molecular Devices, Sunnyvale, CA). Twelve images per well were collected at ×10 magnification. Images were processed with MetaXpress analysis software. OPC outgrowth was calculated by the MetaExpress® “neurite outgrowth” software module which uses fluorescence and user-modified parameters to document the overall extent of processes emanating from the cell soma, regardless of size of the protrusions or the number of branches. This was previously detailed elsewhere [Cua, R. C.; Lau, L. W.; Keough, M. B.; Midha, R.; Apte, S. S.; and Yong, V. W. Overcoming neurite-inhibitory chondroitin sulfate proteoglycans in the astrocyte matrix. Glia 2013, 61 (6), 972-84]. Live-dead cell assay was calculated with MetaXpress analysis software with the “multiwavelength cell scoring”, which uses fluorescent intensity to measure co-localization of calcein AM, propidium iodide, and […]. Data from the 12 images were averaged to a single data point per well, wherein the OPC outgrowth data calculated from the MetaExpress® “neurite outgrowth” readout was divided by data from the same 12 fields of cell number that was acquired through the multiwavelength cell scoring. This provided mean outgrowth per cell per well, with four well replicates per treatment. Experiments were repeated at least twice.
A mixture was created containing propidium iodide (10 μg/ml) to stain dead cells, 10 μM Calcein AM (ThermoFisher, #C3100MP) to identify live cells, and 2 drops per ml of media of NucBlue™ Live ReadyProbes™ Reagent (ThermoFisher, #R37605) to identify nuclei. The mixture was added to plate media and incubated for 20-30 minutes at 37° C. and 5% CO2 before imaging. Excitation/emission of calcein-AM (λex 490 nm, λem 515 nm), propidium iodide (λex 535 nm, λem 617 nm), and nuclear blue (λex 350 nm, λem 461 nm) was performed using ImageXpress® Micro Cellular Imaging and Analysis System (Molecular Devices, Sunnyvale, CA) and analyzed by MetaExpress multiwavelength cell scoring program.

Where [2] appears, read: astrocyte conditioned media, 50 μM, 48 hours.

“Also recorded” adds a separate entry of the source. Read-outs that look alike come from different tables or passages of the source.

Regarding `CCCC(=O)OC[C@H]1OC(O)[C@H](NC(C)=O)[C@@H](OC(=O)CCC)[C@@H]1F` (stereo partly drawn) [Compound 12, 2-Acetamido-3,6-di-O-butanoyl-2,4-dideoxy-4-fluoro-α/β-3-D-glucopyranose], the “effect on CSPG production by astrocytes” value in series [1] (setting [2]) is “did not affect CSPG synthesis; also recorded: did not lower CSPG production in astrocytes”. Also, the “Reduce CSPG production” value in series [1] is “n.s”.

Regarding `CC(=O)N[C@H]1[C@H](OC(C)=O)O[C@H](COC(C)=O)[C@@H](OC(C)=O)[C@@H]1OC(C)=O` [Compound 1, reference compound], the “effect on CSPG production by astrocytes” value in series [1] (setting [2]) is “did not affect CSPG production; also recorded: did not lower CSPG production in astrocytes”. Moreover, in series [1], the “Reduce CSPG production” value is “n.s”.

For the compound `CCC(=O)OC1OC(COC(C)=O)[C@@H](F)[C@H](OC(C)=O)C1NC(C)=O` (stereo partly drawn) [Compound 7, 2-Acetamido-3,6-di-O-acetyl-2,4-dideoxy-4-fluoro-1-O-propanoyl-α/β-D-glucopyranose], the “effect on CSPG production by astrocytes” value in series [1] (setting [2]) is on record as “most effectively reduced CSPG production”. Further, the “toxicity on astrocytes (propidium iodide/calcein AM)” value in the series with mouse astrocytes was “did not produce toxicity”.

In the case of `CC(=O)NC1C(OC(C)=O)OC(COC(C)=O)[C@H](F)[C@@H]1OC(C)=O` (mixture of isomers) [Compound 13, 2-Acetamido-1,3,6-tri-O-acetyl-2,4-dideoxy-4-fluoro-α/β-D-galactopyranose], in series [1] (setting [2]), the “effect on CSPG production by astrocytes” value was “significantly reduced chondroitin sulfate GAGs; also recorded: most effectively reduced CSPG production”. Moreover, the “toxicity on astrocytes (propidium iodide/calcein AM)” value in the series with mouse astrocytes is “did not produce toxicity”.

Consider `CC(=O)NC1C(OC(C)=O)OC(COC(C)=O)[C@@H](F)C1OC(C)=O` (stereo partly shown) [Compound 3, reference compound], for which the “effect on CSPG production by astrocytes” value in series [1] (setting [2]) was “most effectively reduced CSPG production”. Besides, the “Reduce CSPG production” value in series [1] is on record as “*** (***p < 0.001)”. For the same compound, in the series with mouse astrocytes, the “toxicity on astrocytes (propidium iodide/calcein AM)” value was “did not produce toxicity”.

As for `CCCC(=O)OC1OC(COC(C)=O)[C@@H](F)[C@H](OC(C)=O)C1NC(C)=O` (mixture of isomers) [Compound 8, 2-Acetamido-3,6-di-O-acetyl-1-O-butanoyl-2,4-dideoxy-4-fluoro-α/β-D-glucopyranose], in the series with mouse astrocytes, the “toxicity on astrocytes (propidium iodide/calcein AM)” value is on record as “did not produce toxicity”.

Take `CC(=O)NC1C(O)OC(COC(C)=O)[C@@H](F)[C@@H]1OC(C)=O` (mixture of isomers) [Compound 10]: the “effect on CSPG production by astrocytes” value in series [1] was “most effectively reduced CSPG production”. Further, the “toxicity on astrocytes (propidium iodide/calcein AM)” value in the series on mouse astrocytes was “did not produce toxicity”.

With `CC(=O)NC1C(OC(C)=O)OC(COC(C)=O)C(F)(F)[C@@H]1OC(C)=O` (mixture of isomers) [Compound 16, 2-Acetamido-1,3,6-tri-O-acetyl-2,4-dideoxy-4,4-difluoro-α/β-D-xylo-hexopyranose], the “effect on CSPG production by astrocytes” value in series [1] (setting [2]) is reported as “reduced CSPG production in astrocytes more effectively than Ac-4-F-GlcNAc 3; also recorded: most effectively reduced CSPG production”. The “toxicity on astrocytes (propidium iodide/calcein AM)” value with mouse astrocytes is “did not produce toxicity”.
